What is called IC50 is the midpoint of a concentration-inhibition curve. As a reminder, the inhibition is the relative decrease from the control value, in per cent.

Entries after “also recorded” stand apart in the source; their conditions may differ. Read-outs that look alike come from different tables or passages of the source. Where no end group is shown, it is not given here.

This is an account of results in publication PMC9775090, “Identification of Bioactive Peptides from Nannochloropsis oculata Using a Combination of Enzymatic Treatment, in Silico Analysis and Chemical Synthesis” (Biomolecules, 2022).

For one experiment, the system named is Escherichia coli DSM 301. Nature of the experiment: Modified agar well diffusion assay, E. coli. Type of experiment: cell-based. The note with it: 1 mg/mL in 30 µL well, 24 h. The procedure:
(§1) The antibacterial activity of synthesised peptides was determined using an overnight culture of the pathogenic bacteria in a modified agar well diffusion assay as described previously. A zone of inhibition around wells containing the peptides indicates antibacterial activity. Escherichia coli DSM 301 and Bacillus cereus DSM 31 were used as indicator pathogen strains. Ampicillin (Merck, Dublin, Ireland) and Cecropin P1 (Merck, Dublin Ireland) were used as positive control antibiotics and antimicrobial peptides. Positive controls or test peptides were incubated (concentration 1 mg/mL) in a well (30 µL capacity) on the agar plate which was seeded with the pathogenic strain at an overnight culture to media ratio of 100 µL: 500 mL (v:v). Plates were left at 4 °C for 4 h and subsequently incubated at the optimum culture temperature and conditions for the pathogen in question. After 24 h, zones of inhibition indicated the presence of antibacterial activity.
For orientation: Agar diffusion results depend on both activity and mobility in agar.

The subject of a further experiment is Bacillus cereus DSM 31. Kind of experiment: Modified agar well diffusion assay, B. cereus. Type of experiment: cell-based. The following applies: 1 mg/mL in 30 µL well, 24 h. The procedure:
as §1

For experiment [1], the target named is T1, Angiotensin-1-converting enzyme (ACE-1) (Homo sapiens, UniProt P12821).
T1 construct: purchased Tebu Bio (TebuBio Ltd., Peterborough, UK)
Kind of experiment: ACE-1 inhibition, ACE kit-WST 96-well colorimetric assay. The note with it: for Observed Bioactivity In Vitro (ACE-1): result in words; for % ACE-1 inhibition / inhibition at 1000 µg/mL: synthesised peptides assayed at 1 mg/mL, n = 3; for inhibition at 1000 µg/mL: read-out: % ACE-1 inhibition. The experiment is classed as biochemical. How it is done:
The ACE-I inhibitory activity was determined using a 96 well plate bioassay supplied by Tebu-Bio (TebuBio Ltd., Peterborough, UK) in accordance with the manufacturers’ instructions. Briefly, the enzyme working solution and indicator working solution were prepared according to the manufacturer’s instructions. […] Blanks were included. 20 µL of the substrate buffer was added to each well, followed by 20 µL of the enzyme working solution to experimental wells and blank one wells. The plate was incubated at 37 °C for 1 h. After incubation, 200 µL indicator working solution was added to each well, and the plate was incubated at room temperature for 10 min. […] Absorbance was measured using a plate reader at 450 nm. For IC50 determination, the ACE kit-WST was also used.

In a further experiment the test system is ACE-1. The note with it: cited from earlier work. How it is done: Limited studies exist concerning the use of Nannochloropsis sp. as a source of protein, protein hydrolysates or bioactive peptides. Recently, […] et al. […] Enzymatic treatment of biomass is a useful strategy for generation of bioactive peptide containing concentrates. […] These peptides were selected based on their Peptide Ranker scores and amino acid sequences. The ACE-1 and COX-1/COX-2 assays were performed as described previously described using commercially available kits from Cambridge BioSciences (Cambridge BioSciences, Cambridge, UK).

The next experiment relates to ovine recombinant COX-1. Nature of the experiment: Cyclooxygenase inhibition, cell free assay (COX-1). The experiment is classed as biochemical. The following applies: for COX-1 inhibition: assayed at 1 mg/mL, ovine recombinant COX-1. The procedure: (§2) In vitro assays to determine COX inhibition were performed using cell free assays as described previously. The synthesised peptides were incubated independently with ovine recombinant COX-1 (Cayman Chemicals, Hamburg, Germany) or human recombinant COX-2 (Cayman Chemicals, Hamburg, Germany). The assay was carried out in accordance with the manufacturer’s instructions. Resveratrol (Merck, Dublin, Ireland) was used as a positive control.

The test system of another experiment is human recombinant COX-2. Nature of the experiment: Cyclooxygenase inhibition, cell free assay (COX-2). Type of experiment: biochemical. The note with it: for COX-2 inhibition: assayed at 1 mg/mL, human recombinant COX-2. The procedure:
as §2

The mark [2] stands for this setting: peptides from pepsin treated Nannochloropsis oculata.

T1 sequence (P12821 30-1306): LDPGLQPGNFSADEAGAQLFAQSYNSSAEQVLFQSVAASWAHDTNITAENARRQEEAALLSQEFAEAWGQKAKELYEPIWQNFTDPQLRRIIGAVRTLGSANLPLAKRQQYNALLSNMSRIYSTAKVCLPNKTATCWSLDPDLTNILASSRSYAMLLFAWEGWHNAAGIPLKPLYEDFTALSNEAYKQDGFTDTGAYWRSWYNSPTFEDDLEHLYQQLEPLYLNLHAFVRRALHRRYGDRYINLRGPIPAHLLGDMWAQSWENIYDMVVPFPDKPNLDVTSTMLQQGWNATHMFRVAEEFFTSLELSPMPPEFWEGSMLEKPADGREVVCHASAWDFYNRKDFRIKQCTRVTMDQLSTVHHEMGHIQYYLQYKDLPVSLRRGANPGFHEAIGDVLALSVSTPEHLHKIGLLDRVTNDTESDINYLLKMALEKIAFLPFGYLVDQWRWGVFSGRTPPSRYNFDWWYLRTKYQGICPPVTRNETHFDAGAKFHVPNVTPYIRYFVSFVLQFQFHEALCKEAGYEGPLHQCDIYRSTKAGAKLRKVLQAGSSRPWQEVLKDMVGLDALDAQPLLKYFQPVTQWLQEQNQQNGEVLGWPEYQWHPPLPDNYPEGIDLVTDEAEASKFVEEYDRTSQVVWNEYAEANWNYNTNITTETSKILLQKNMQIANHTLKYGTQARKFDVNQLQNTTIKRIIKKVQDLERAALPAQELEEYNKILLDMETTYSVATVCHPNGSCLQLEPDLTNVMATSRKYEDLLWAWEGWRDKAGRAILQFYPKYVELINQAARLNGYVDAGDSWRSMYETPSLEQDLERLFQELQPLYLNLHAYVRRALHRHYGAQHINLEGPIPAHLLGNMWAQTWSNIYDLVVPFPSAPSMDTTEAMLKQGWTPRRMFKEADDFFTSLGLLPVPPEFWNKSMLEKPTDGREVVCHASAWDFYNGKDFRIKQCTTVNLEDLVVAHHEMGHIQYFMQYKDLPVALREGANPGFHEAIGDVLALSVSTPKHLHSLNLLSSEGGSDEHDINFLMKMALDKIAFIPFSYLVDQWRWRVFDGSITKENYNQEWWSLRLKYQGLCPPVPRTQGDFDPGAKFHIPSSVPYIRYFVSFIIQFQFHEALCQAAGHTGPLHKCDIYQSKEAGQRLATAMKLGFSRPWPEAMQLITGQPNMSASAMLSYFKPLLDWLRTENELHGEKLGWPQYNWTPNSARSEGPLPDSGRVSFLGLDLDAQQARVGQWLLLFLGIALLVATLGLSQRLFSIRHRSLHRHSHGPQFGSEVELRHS

Take AGDVGFDPLGF: the “Antibacterial activity against E. coli (zone of inhibition)” value in the experiment on Escherichia coli DSM 301 is “having antibacterial activity in vitro against E. coli; also recorded: produced a zone of inhibition; also recorded: Antibacterial activity against E. coli at a concentration of 1 mg/mL”. Moreover, the “Antibacterial activity against B. cereus (zone of inhibition)” value with Bacillus cereus DSM 31 is “not B. cereus”. Moreover, the “Observed Bioactivity In Vitro (ACE-1)” value in experiment [1] is on record as “ACE-1 inhibitory”.
Turning to GMNNLTP [GMNNLTP], in the experiment on ACE-1 (setting [2]), the IC50 was 123 µM.
For the compound “LVGADAHALGVICS [peptide corresponding to a transcriptor initiation protein from Porphyridium sp., chemically synthesised]”, the “Observed Bioactivity In Vitro (ACE-1)” value in experiment [1] was “ACE-1 inhibition”.
Consider “YANDLLCMPI [peptide identified in Nannochloropsis sp. xylanase permeate, chemically synthesised]”, for which the COX-1 inhibition in the experiment on ovine recombinant COX-1 was found to be 34.5%. Further, the “Observed Bioactivity In Vitro (COX-1)” value in the experiment with ovine recombinant COX-1 (result in words) was “COX-1 and COX-2 inhibition”. Moreover, in the experiment on human recombinant COX-2, the COX-2 inhibition is 47.65%. In addition, the “Observed Bioactivity In Vitro (COX-2)” value in the experiment with human recombinant COX-2 (result in words) is “COX-1 and COX-2 inhibition”.
For “VVGAVGAADLL [peptide corresponding to HEAT repeat-containing protein 1 of Ectocarpus siliculosus, chemically synthesised]”, in experiment [1], the “Observed Bioactivity In Vitro (ACE-1)” value is on record as “ACE-1 inhibition” and the “% ACE-1 inhibition” value amounted to 25.73%.
Take Leu-Val-Thr-Val-Met: in the experiment with ACE-1 (purified peptide from Alcalase hydrolysate), the IC50 is 18 µM.
Take Leu-Glu-Gln [LEQ]: the IC50 in the experiment on ACE-1 (setting [2]) is 173 µM.
Consider `Oc1ccc(/C=C/c2cc(O)cc(O)c2)cc1` [Resveratrol, reference compound], for which the COX-1 inhibition with ovine recombinant COX-1 is 78.41 (±2.92) %. In addition, the COX-2 inhibition in the experiment on human recombinant COX-2 is 70.41%.
Turning to VYNKFPYTTQ [VYNKFPYTTQ], the inhibition at 1000 µg/mL in experiment [1] is 81.7%.
For NKFPYTTQ [NKFPYTTQ], in experiment [1], the inhibition at 1000 µg/mL was 76.8%.
As to “KGGGSGANGGRL [peptide identified in Nannochloropsis sp. xylanase permeate, chemically synthesised; spelt three ways]”, in experiment [1] (listed as KGGGGGANGGRL), the “% ACE-1 inhibition” value was found to be 35.81%.
